Entries after “also recorded” stand apart in the source; their conditions may differ. Numbered stars: 1 amine (or outer) side, 2 acyl side, 3 side chain; on linkers, the order of the positions; unused ones are H or OH. Bridge positions count the residues as written; N and C are the ends. Side chains are listed from the residue outwards. Peptide text beside a SMILES is read from it. * marks the point of attachment. C20 diacid = O=C(O)CCCCCCCCCCCCCCCCCCC(=O)*; γGlu = O=C(O)[C@H](CCC(=O)[*:2])N[*:1]
Legend:
Sprague-Dawley rats = assay: Assay (XI) single subcutaneous administration, food intake monitored for 48 hours in rats; type: in vivo, rat; conditions: single subcutaneous 30 nmol/kg
Method: Assay (XI)—Effect from Single Subcutaneous Administration of Analogue on […] in Rats
Male Sprague-Dawley rats (Taconic Europe, ˜250 g at test date) were acclimatized to reversed day light cycle (lights on from 10 PM to 10 AM) and single housing in online food intake monitoring system (Ellegaard MBRose, Denmark) prior to study start. Rats were divided in groups of five and subcutaneously dosed with test compound (30 nmol/kg) and food intake was monitored for 48 hours hereafter. Data are illustrated in graphs as mean±SEM.

Wistar rats = assay: Assay (XII) single subcutaneous administration, plasma calcium in rats; type: in vivo, rat; conditions: for Plasma calcium red (%) 0-12 h: single s.c., maximal reduction 0-12 h, compared to vehicle; for suppression of plasma calcium level relative to vehicle: single subcutaneous, over 24 hours
Method: Assay (XII)—Effect from Single Subcutaneous Administration of Analogue on Plasma Calcium in Rats
Male Wistar rats (Taconic Europe, ˜250 g at test date) were acclimatized to handling prior to the study. Rats were divided in groups of five and subcutaneously dosed with test compound at time=0. At time T=−15 min; 1 h, 2 h, 4 h, 7 h, 12 h, and 24 h a blood sample was obtained and heparin stabilized plasma was analysed for total calcium (Cobas, Hitachi). Data are illustrated in graphs as mean±SEM.

human amylin receptor = target: T1, human amylin receptor (Homo sapiens, UniProt O60896+P30988); assay: Assay (V) binding to the human amylin receptor (SPA, 125I-rat amylin)
T1 construct: expressed in transfected cells
T1 sequence (P30988 25-474): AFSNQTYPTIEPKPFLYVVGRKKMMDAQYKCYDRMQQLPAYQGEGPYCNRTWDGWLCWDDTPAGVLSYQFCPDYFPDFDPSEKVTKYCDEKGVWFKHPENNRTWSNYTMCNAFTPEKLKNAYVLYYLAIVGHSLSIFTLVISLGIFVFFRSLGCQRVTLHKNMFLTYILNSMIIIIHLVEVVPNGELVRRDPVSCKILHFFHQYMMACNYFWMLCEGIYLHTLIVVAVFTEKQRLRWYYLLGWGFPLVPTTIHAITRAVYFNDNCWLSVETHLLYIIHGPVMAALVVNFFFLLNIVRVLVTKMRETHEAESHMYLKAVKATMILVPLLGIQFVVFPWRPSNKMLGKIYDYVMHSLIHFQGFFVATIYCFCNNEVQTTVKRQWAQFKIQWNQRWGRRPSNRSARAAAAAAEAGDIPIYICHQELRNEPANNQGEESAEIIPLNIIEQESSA
T1 sequence (O60896 24-148 partner): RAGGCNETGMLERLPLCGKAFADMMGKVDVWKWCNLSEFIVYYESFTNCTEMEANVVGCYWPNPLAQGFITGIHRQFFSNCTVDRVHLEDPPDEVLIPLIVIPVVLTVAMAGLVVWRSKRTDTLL
Procedure, shortened: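 SPA competition binding on membranes from Amylin 3(a)/CRE-luc cells, 35 ng/μL membranes with 0.05 mg/well beads. Buffer 50 mM Hepes pH 7.4, 1 mM CaCl2, 5 mM MgCl2, 0.1% OA, 0.02% Tween20. IC50 from one-site competition fit as affinity measure.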

CC[C@H](C)[C@H](NC(=O)[C@H](C)NC(=O)CNC(=O)[C@H](Cc1ccccc1)NC(=O)[C@H](CC(N)=O)NC(=O)[C@@H]1CCCN1C(=O)[C@H](CO)NC(=O)[C@H](CO)NC(=O)[C@H](Cc1c[nH]cn1)NC(=O)[C@H](CCCNC(=N)N)NC(=O)[C@H](CC(C)C)NC(=O)[C@H](Cc1ccccc1)NC(=O)[C@H](CC(N)=O)NC(=O)[C@H](C)NC(=O)[C@H](CC(C)C)NC(=O)[C@H](CCCNC(=N)N)NC(=O)[C@H](CCC(N)=O)NC(=O)[C@@H](NC(=O)[C@H](C)NC(=O)[C@@H]1CSSC[C@H](NC(=O)[C@@H](N)CCCCNC(=O)CC[C@H](NC(=O)CC[C@H](NC(=O)CCCCCCCCCCCCCCCCCCC(=O)O)C(=O)O)C(=O)O)C(=O)N[C@@H](CC(N)=O)C(=O)N[C@@H]([C@@H](C)O)C(=O)N[C@@H](C)C(=O)N[C@@H]([C@@H](C)O)C(=O)N1)[C@@H](C)O)C(=O)N1CCC[C@H]1C(=O)N[C@@H](CO)C(=O)N[C@@H](CO)C(=O)N[C@H](C(=O)N[C@@H](CC(N)=O)C(=O)N[C@H](C(=O)NCC(=O)N[C@@H](Cc1c[nH]cn1)C(=O)N[C@@H](CC(N)=O)C(=O)N[C@H](C(=O)N[C@@H](Cc1ccc(O)cc1)C(N)=O)[C@@H](C)O)C(C)C)[C@@H](C)O [Example 86] (H-K([γGlu-γGlu-C20 diacid])CNTATCATQRLANFLRHSSPNFGAIPSSTNVGHNTY-NH2; disulfide 2-7 (inferred); N-terminus and C-terminus assumed)
food intake monitored over 48 hours versus vehicle (Sprague-Dawley rats): reduces food intake in rats
Plasma calcium red (%) 0-12 h (Wistar rats; 30 nmol/kg): 0%
suppression of plasma calcium level relative to vehicle (Wistar rats; increasing doses (all doses tested)): None of the doses trigger a notable suppression of the calcium level

CC[C@H](C)[C@H](NC(=O)[C@H](C)NC(=O)CNC(=O)[C@H](Cc1ccccc1)NC(=O)[C@H](CC(N)=O)NC(=O)[C@@H]1CCCN1C(=O)[C@H](CO)NC(=O)[C@H](CO)NC(=O)[C@H](Cc1c[nH]cn1)NC(=O)[C@H](CCCNC(=N)N)NC(=O)[C@H](CC(C)C)NC(=O)[C@H](Cc1ccccc1)NC(=O)[C@H](CCC(=O)O)NC(=O)[C@H](C)NC(=O)[C@H](CC(C)C)NC(=O)[C@H](CCCNC(=N)N)NC(=O)[C@H](CCC(N)=O)NC(=O)[C@@H](NC(=O)[C@H](C)NC(=O)[C@@H]1CSSC[C@H](NC(=O)[C@@H](N)CCCCNC(=O)CC[C@H](NC(=O)CC[C@H](NC(=O)CCCCCCCCCCCCCCCCCCC(=O)O)C(=O)O)C(=O)O)C(=O)N[C@@H](CC(N)=O)C(=O)N[C@@H]([C@@H](C)O)C(=O)N[C@@H](C)C(=O)N[C@@H]([C@@H](C)O)C(=O)N1)[C@@H](C)O)C(=O)N1CCC[C@H]1C(=O)N[C@@H](CO)C(=O)N[C@@H](CO)C(=O)N[C@H](C(=O)N[C@@H](CC(N)=O)C(=O)N[C@H](C(=O)NCC(=O)N[C@@H](CO)C(=O)N[C@@H](CCCNC(=N)N)C(=O)N[C@H](C(=O)N[C@@H](Cc1ccc(O)cc1)C(N)=O)[C@@H](C)O)C(C)C)[C@@H](C)O [Example 89] (H-K([γGlu-γGlu-C20 diacid])CNTATCATQRLAEFLRHSSPNFGAIPSSTNVGSRTY-NH2; disulfide 2-7 (inferred); N-terminus and C-terminus assumed)
Ratio hCT/hAmylin binding (human amylin receptor; Table 7b, human calcitonin receptor binding IC50 divided by human amylin receptor binding IC50): 28.0
Ratio hCT/hAmylin binding (human amylin receptor; Table 7c, human calcitonin receptor binding IC50 divided by human amylin receptor binding IC50): 28.0
Ratio hCT/hAmylin binding (human amylin receptor; human binding ratio, included for comparison): 28.0
food intake monitored over 48 hours versus vehicle (Sprague-Dawley rats): reduce food intake in rats
Plasma calcium red (%) 0-12 h (Wistar rats; 30 nmol/kg): 7%
suppression of plasma calcium level relative to vehicle (Wistar rats; 30 nmol/kg): None of the example compounds at 30 nmol/kg trigger a notable suppression of the calcium level
suppression of plasma calcium level relative to vehicle (Wistar rats; 1000 nmol/kg): more pronounced suppression of the calcium level

CC[C@H](C)[C@H](NC(=O)[C@H](C)NC(=O)CNC(=O)[C@H](Cc1ccccc1)NC(=O)[C@H](CC(N)=O)NC(=O)[C@@H]1CCCN1C(=O)[C@H](CO)NC(=O)[C@H](CO)NC(=O)[C@H](Cc1c[nH]cn1)NC(=O)[C@H](CCCNC(=N)N)NC(=O)[C@H](CC(C)C)NC(=O)[C@H](Cc1ccccc1)NC(=O)[C@H](CCC(=O)O)NC(=O)[C@H](C)NC(=O)[C@H](CC(C)C)NC(=O)[C@H](CCCNC(=N)N)NC(=O)[C@H](CCC(N)=O)NC(=O)[C@@H](NC(=O)[C@H](C)NC(=O)[C@@H]1CSSC[C@H](NC(=O)[C@@H](N)CCCCNC(=O)CC[C@H](NC(=O)CC[C@H](NC(=O)CCCCCCCCCCCCCCCCCCC(=O)O)C(=O)O)C(=O)O)C(=O)N[C@@H](CC(N)=O)C(=O)N[C@@H]([C@@H](C)O)C(=O)N[C@@H](C)C(=O)N[C@@H]([C@@H](C)O)C(=O)N1)[C@@H](C)O)C(=O)N1CCC[C@H]1C(=O)N[C@@H](CO)C(=O)N[C@@H](CO)C(=O)N[C@H](C(=O)N[C@@H](CC(N)=O)C(=O)N[C@H](C(=O)NCC(=O)N1CCC[C@H]1C(=O)N[C@@H](CCCNC(=N)N)C(=O)N[C@H](C(=O)N[C@@H](Cc1ccc(O)cc1)C(N)=O)[C@@H](C)O)C(C)C)[C@@H](C)O [Example 110] (H-K([γGlu-γGlu-C20 diacid])CNTATCATQRLAEFLRHSSPNFGAIPSSTNVGPRTY-NH2; disulfide 2-7)
food intake monitored over 48 hours versus vehicle (Sprague-Dawley rats): reduces food intake in rats
Plasma calcium red (%) 0-12 h (Wistar rats; 30 nmol/kg): 8%
suppression of plasma calcium level relative to vehicle (Wistar rats; 30 nmol/kg): None of the example compounds at 30 nmol/kg trigger a notable suppression of the calcium level

CC(C)C[C@H](NC(=O)[C@H](CCCCN)NC(=O)CNC(=O)[C@H](CC(C)C)NC(=O)[C@@H](NC(=O)[C@@H]1CSSC[C@H](N)C(=O)N[C@@H](CO)C(=O)N[C@@H](CC(N)=O)C(=O)N[C@@H](CC(C)C)C(=O)N[C@@H](CO)C(=O)N[C@@H]([C@@H](C)O)C(=O)N1)C(C)C)C(=O)N[C@@H](CO)C(=O)N[C@@H](CCC(N)=O)C(=O)N[C@@H](CCC(=O)O)C(=O)N[C@@H](CC(C)C)C(=O)N[C@@H](Cc1c[nH]cn1)C(=O)N[C@@H](CCCCN)C(=O)N[C@@H](CC(C)C)C(=O)N[C@@H](CCC(N)=O)C(=O)N[C@H](C(=O)N[C@@H](Cc1ccc(O)cc1)C(=O)N1CCC[C@H]1C(=O)N[C@@H](CCCNC(=N)N)C(=O)N[C@H](C(=O)N[C@@H](CC(N)=O)C(=O)N[C@H](C(=O)NCC(=O)N[C@@H](CO)C(=O)NCC(=O)N[C@H](C(=O)N1CCC[C@H]1C(N)=O)[C@@H](C)O)[C@@H](C)O)[C@@H](C)O)[C@@H](C)O [salmon calcitonin, reference compound]
food intake monitored over 48 hours versus vehicle (Sprague-Dawley rats): reduction of food intake; also recorded: reduces food intake in rats
Plasma calcium red (%) 0-12 h (Wistar rats; 3 nmol/kg): 35%
Plasma calcium red (%) 0-12 h (Wistar rats; 30 nmol/kg): 39%

— patent US8575091B1, “Amylin analogues and pharmaceutical compositions thereof” (Novo Nordisk A/S, priority 2012, dated 2013)
